The text below walks through data of paper PMC4401082 (European journal of medicinal chemistry, 2014).

Test [1] concerns the target T1, oCOX-1 (ovine cyclooxygenase-1) (Ovis aries, UniProt P05979).
T1 sequence (P05979 25-600): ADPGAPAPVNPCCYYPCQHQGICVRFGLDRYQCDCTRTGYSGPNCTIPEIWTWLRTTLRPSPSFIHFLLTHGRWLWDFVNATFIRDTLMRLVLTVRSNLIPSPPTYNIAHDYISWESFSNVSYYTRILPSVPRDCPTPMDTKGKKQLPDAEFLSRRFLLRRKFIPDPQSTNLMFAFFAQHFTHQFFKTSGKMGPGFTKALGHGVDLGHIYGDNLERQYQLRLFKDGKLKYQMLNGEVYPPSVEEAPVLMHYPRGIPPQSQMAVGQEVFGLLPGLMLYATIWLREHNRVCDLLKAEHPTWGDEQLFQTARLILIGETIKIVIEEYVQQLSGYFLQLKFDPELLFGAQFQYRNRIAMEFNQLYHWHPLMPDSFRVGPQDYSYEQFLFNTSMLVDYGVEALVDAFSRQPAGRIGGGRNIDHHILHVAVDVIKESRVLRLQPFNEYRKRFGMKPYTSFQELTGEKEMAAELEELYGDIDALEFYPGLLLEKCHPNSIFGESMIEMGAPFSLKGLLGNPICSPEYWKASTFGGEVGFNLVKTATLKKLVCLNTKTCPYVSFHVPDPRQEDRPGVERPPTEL
Kind of test: [[…]-14C]-arachidonic acid TLC COX activity assay with purified enzyme. The class given is biochemical.

Test [2] deals with hCOX-1 (cyclooxygenase-1) (Homo sapiens, UniProt P23219). Description: [[…]-14C]-arachidonic acid metabolism in intact OVCAR-3 cells. The format is cell-based.
Chain of hCOX-1 (cyclooxygenase-1) (P23219 24-599): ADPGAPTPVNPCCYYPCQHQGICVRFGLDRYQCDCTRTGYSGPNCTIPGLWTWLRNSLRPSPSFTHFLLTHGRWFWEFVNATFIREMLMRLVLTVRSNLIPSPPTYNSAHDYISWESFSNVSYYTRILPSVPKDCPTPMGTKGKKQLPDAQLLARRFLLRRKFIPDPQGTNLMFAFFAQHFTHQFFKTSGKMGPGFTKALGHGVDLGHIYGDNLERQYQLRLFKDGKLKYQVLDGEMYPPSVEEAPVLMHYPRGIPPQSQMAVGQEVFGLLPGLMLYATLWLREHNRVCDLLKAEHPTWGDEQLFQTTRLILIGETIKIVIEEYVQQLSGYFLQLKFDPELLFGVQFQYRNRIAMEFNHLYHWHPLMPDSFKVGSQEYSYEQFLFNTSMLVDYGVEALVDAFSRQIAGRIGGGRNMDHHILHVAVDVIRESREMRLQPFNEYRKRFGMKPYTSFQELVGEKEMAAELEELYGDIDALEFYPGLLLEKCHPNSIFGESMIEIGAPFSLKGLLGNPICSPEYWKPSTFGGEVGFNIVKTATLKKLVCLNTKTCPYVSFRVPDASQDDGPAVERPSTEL

In the case of `FCc1onc(-c2ccc(Cl)o2)c1-c1ccccc1` [[19F]-P6, 3-(5-chlorofuran-2-yl)-5-(fluoromethyl)-4-phenylisoxazole], the IC50 in test [1] stood at 2000 nM; in test [2], 1370 nM.

A word on the IC50: it is the point on the concentration scale where inhibition reaches its midpoint.
